Legend:
[1] = Dissolution in 25% by weight Kolliphor HS15; type: physicochemical; details: for amount of compound contained in prepared solution (10 ml): 18 mg starting weight, 25% w/w Kolliphor HS15, ultrasound about 50° C., non-dissolved residue deducted
Experimental: Pharmaceutical composition E (solution). For intraperitoneal administration a 25% by weight Kolliphor HS15 stock solution was prepared by melting an entire container of Kolliphor HS15 (Sigma 42966) by warming to 60° C. and diluting with deionized water to 25% w/w. To compound #1570 (18.0 mg) in a 10 mL sample tube was added 10.0 mL of the stock solution and the tube vortexed, treated with ultrasound at about 50° C. for about 2 h, and occasionally heated to about 83° C. […] By the same procedure solutions of compounds #1546 and #1571 were prepared; these compounds were however not fully dissolved. The non-dissolved residue was weighed, and the weight deducted from the starting weight of compound (18 mg).

[2] = tested on: HCT116; assay: FMCA (Fluorometric Microculture Cytotoxicity Assay) cytotoxicity; type: cell-based; details: for cytotoxicity relative to structurally corresponding compounds with a 6-membered ring moiety: HCT-116, 72 hours, survival index, FIGS. 3b, 3d, 3f; for IC50: Table 2, 72 hours of continuous compound exposure
Experimental: FIGS. 1a to 1o are diagrams illustrating induction of dose-dependent cytotoxicity after 72 hours of continuous compound exposure to the reporter cell line HCT-116 by embodiments of the compound of the invention, as measured FMCA (Fluorometric Microculture Cytotoxicity Assay), as well as absence of such induction by structurally related compounds not comprised by the invention. Treated cells were compared to untreated controls (survival index);
Determination of cell apoptosis and viability. For determination of apoptosis parental HCT-116 p53+/+ cells are treated with the increasing doses of the compound of the invention for 24 h. […] HCT-116 cells are seeded in 96-well microtiter plates at 10,000 cells per well and incubated overnight. Cells are treated with indicated drug for 24 h. At the end of the incubation period, NP40 is added to the tissue culture medium to 0.1% and 25 μl of the content of each well was assayed using the M30-Apoptosense® ELISA as previously described (31). Cell viability is determined by measuring acid phosphatase activity or using the FMCA method (32). For the acid phosphatase activity cells are seeded at 5000 cells per well in 96-well culture plates and incubated for 12 h at 37° C. Compounds are added to the cells in growth media and incubated for 72 h at 37° C. Cells are washed with 200 μl warm PBS. 100 μl of para-nitrophenyl phosphate (pNPP, 2 mg/ml) in Na acetate buffer pH 5 (NaAc 0.1 M, 0.1% Triton-X-100) is added per well. Cells are incubated for 2 h after which reaction was stopped by addition of 1N NaOH. Absorbance is measured at 405 nm. The dose-dependent cytotoxicity of a number of embodiments of the compound of the invention is illustrated in FIGS. 1a-1o.
For the FMCA assay cells are seeded in the drug-prepared 384-well plates using the pipetting robot Precision 2000 (Bio-Tek Instruments Inc., Winooski, Vt.). The plates are incubated for 72 h and then transferred to an integrated HTS SAIGAN Core System consisting of an ORCA robot (Beckman Coulter) with CO2 incubator (Cytomat 2C, Kendro, Sollentuna, Sweden), dispenser module (Multidrop 384, Titertek, Huntsville, Ala.), washer module (ELx 405, Bio-Tek Instruments Inc), delidding station, plate hotels, barcode reader (Beckman Coulter), liquid handler (Biomek 2000, Beckman Coulter) and a multipurpose reader (FLUOstar Optima, BMG Labtech GmbH, Offenburg, Germany) for automated FMCA. Survival index (SI) is defined as the fluorescence of test wells in percentage of controls with blank values subtracted.
FIGS. 3b, 3d, 3f are diagrams illustrating the cytotoxicity of compounds of the invention nos. 1546, 1547, and 1570 with a 7-membered ring moiety in comparison to structurally corresponding compounds not comprised by the invention with a 6-membered ring moiety. Their induction of dose-dependent cytotoxicity was determined after 72 hours of continuous compound exposure to the reporter cell line HCT-116. Treated cells were compared with untreated controls. Cytotoxicity is visualized as survival index (SI) over the range of about 90% SI to about 0% SI in dependence on compound concentration.

[3] = tested on: MelJuSo Ub-YFP reporter cell line; assay: Proteasome inhibition in reporter cell line, YFP accumulation in IncuCyte-FLR; type: cell-based; details: Table 2; YFP accumulation measured for 48 hours
Text: Cell culture. MCF7 cells are maintained in MEM/10% fetal calf serum. HCT-116 p53+/+, p53−/−, Bcl-2+/+, PUMA−/− and BAX−/− cells are maintained in McCoy's 5A modified medium/10% fetal calf serum. The HCT-116 p53+/+, p53−/−, PUMA−/− and BAX−/− are generated as described (25). The HCT-116 Bcl-2+/+ cell line was generated by transfecting parental HCT-116 p53+/+ cells with pCEP4 Bcl-2 (Addgene plasmid 16461) (26) and isolating high expression clones. FaDu and LLC3 cells are maintained in DMEM high glucose medium supplemented with 10% fetal calf serum, Na pyruvate, Hepes and non-essential amino acids. 4T1.12B carcinoma cells are maintained in RPMI medium supplemented with 10% fetal calf serum. The proteasome reporter cell line MelJuSo Ub-YFP was generated as described (12). Cells were maintained in Dulbecco's Modified Eagle's Medium/10% fetal calf serum. […] The retinal epithelial cell line was generated as described (28). All cells are maintained at 37° C. in 5% CO2.
The compound of the invention induces proteasome inhibition. The reporter cell line MelJuSo Ub-YFP, which is engineered to accumulate yellow fluorescent protein (YFP) upon proteasome inhibition (12), was used for compound evaluation. The accumulation of YFP was measured for 48 hours in an IncuCyte-FLR system (Essen Bioscience, Essen, UK), which is an automated fluorescence microscope. Numbers of positive cells per field were used as a measure of proteasome inhibition.

C=CC(=O)N1CCC(=Cc2ccc([N+](=O)[O-])cc2)C(=O)C(=Cc2ccc([N+](=O)[O-])cc2)C1 [Compound 1546]
amount of compound contained in prepared solution (10 ml) [1]: 8.5 mg | cytotoxicity relative to structurally corresponding compounds with a 6-membered ring moiety [2]: more cytotoxic | IC50 [2]: 1.2 µM | MeJuSo-UB, lowest effective conc. [3]: 2 µM

C=CC(=O)N1CCC(=Cc2ccc(F)c([N+](=O)[O-])c2)C(=O)C(=Cc2ccc(F)c([N+](=O)[O-])c2)C1 [Compound 1570]
dissolution of 18.0 mg in 10.0 mL stock solution ([1]; 25% w/w Kolliphor HS15, ultrasound about 50° C. about 2 h): clear solution | cytotoxicity relative to structurally corresponding compounds with a 6-membered ring moiety [2]: more cytotoxic | IC50 [2]: 0.5 µM | MeJuSo-UB, lowest effective conc. [3]: 0.25 µM

CC(=O)N1CCC(=Cc2ccc(F)c([N+](=O)[O-])c2)C(=O)C(=Cc2ccc(F)c([N+](=O)[O-])c2)C1 [Compound 1571]
amount of compound contained in prepared solution (10 ml) [1]: 11.0 mg | IC50 [2]: 0.9 µM | MeJuSo-UB, lowest effective conc. [3]: 0.25 µM

O=C1/C(=C/c2ccc(C(F)(F)F)cc2)CCN(C(=O)Cc2ccccn2)C/C1=C\c1ccc(C(F)(F)F)cc1 [Compound 1644]
IC50 [2]: 1.4 µM | MeJuSo-UB, lowest effective conc. [3]: 1 µM

CC(=O)OCC(=O)N1CC/C(=C\c2ccc(Cl)c(F)c2)C(=O)/C(=C/c2ccc(Cl)c(F)c2)C1 [Compound 1645]
IC50 [2]: 2.5 µM | MeJuSo-UB, lowest effective conc. [3]: 2 µM

O=C1/C(=C/c2ccc(F)c([N+](=O)[O-])c2)CCN(C(=O)Cc2ccccn2)C/C1=C\c1ccc(F)c([N+](=O)[O-])c1 [Compound 1648]
IC50 [2]: 0.8 µM | MeJuSo-UB, lowest effective conc. [3]: 0.5 µM

O=C1C(=Cc2cc(F)c(F)c(F)c2)CCN(C(=O)Cc2cccnc2)CC1=Cc1cc(F)c(F)c(F)c1 [Compound 1650]
IC50 [2]: 1.9 µM | MeJuSo-UB, lowest effective conc. [3]: 1 µM

CC(=O)OCC(=O)N1CC/C(=C\c2cc(F)c(F)c(F)c2)C(=O)/C(=C/c2cc(F)c(F)c(F)c2)C1 [Compound 1651]
IC50 [2]: 0.8 µM | MeJuSo-UB, lowest effective conc. [3]: 0.5 µM

O=C1/C(=C/c2cc(F)c(F)c(F)c2)CCN(C(=O)Cc2ccccn2)C/C1=C\c1cc(F)c(F)c(F)c1 [Compound 1653]
IC50 [2]: 0.71 µM | MeJuSo-UB, lowest effective conc. [3]: 1 µM

O=C1C(=Cc2ccc(Cl)c(C(F)(F)F)c2)CCN(C(=O)Cc2cccnc2)CC1=Cc1ccc(Cl)c(C(F)(F)F)c1 [Compound 1655]
IC50 [2]: 1 µM | MeJuSo-UB, lowest effective conc. [3]: 1 µM

CC(=O)OCC(=O)N1CC/C(=C\c2ccc(Cl)c(C(F)(F)F)c2)C(=O)/C(=C/c2ccc(Cl)c(C(F)(F)F)c2)C1 [Compound 1656]
IC50 [2]: 0.7 µM | MeJuSo-UB, lowest effective conc. [3]: 0.5 µM

O=C(Cc1ccccn1)C(=O)N1CCC(=Cc2ccc(Cl)c(C(F)(F)F)c2)C(=O)C(=Cc2ccc(Cl)c(C(F)(F)F)c2)C1 [Compound 1658]
IC50 [2]: 0.8 µM | MeJuSo-UB, lowest effective conc. [3]: 0.5 µM

CC(=O)OCCC(=O)N1CCC(=Cc2ccc(Cl)c(F)c2)C(=O)C(=Cc2ccc(Cl)c(F)c2)C1 [Compound 1660]
IC50 [2]: 2.4 µM | MeJuSo-UB, lowest effective conc. [3]: 2 µM

CC(=O)OCCC(=O)N1CCC(=Cc2ccc(F)c([N+](=O)[O-])c2)C(=O)C(=Cc2ccc(F)c([N+](=O)[O-])c2)C1 [Compound 1662]
IC50 [2]: 2.1 µM | MeJuSo-UB, lowest effective conc. [3]: 1 µM

CC(=O)OCCC(=O)N1CCC(=Cc2cc(F)c(F)c(F)c2)C(=O)C(=Cc2cc(F)c(F)c(F)c2)C1 [Compound 1664]
IC50 [2]: 2.8 µM | MeJuSo-UB, lowest effective conc. [3]: 4 µM

CC(=O)OCCC(=O)N1CCC(=Cc2ccc(Cl)c(C(F)(F)F)c2)C(=O)C(=Cc2ccc(Cl)c(C(F)(F)F)c2)C1 [Compound 1666]
IC50 [2]: 1.3 µM | MeJuSo-UB, lowest effective conc. [3]: 1 µM

(3E,5E)-1-acetyl-5-[(4-fluorophenyl)methylidene]-3-[(4-ethoxyphenyl)methylidene]azepan-4-one [Compound 1579]
IC50 [2]: 5.9 µM | MeJuSo-UB, lowest effective conc. [3]: 8 µM

Reference: patent US9221761B2, “Method for inhibition of deubiquitinating activity” (Vivolux AB, priority 2011, dated 2015)
